Measured values: ChEMBL document CHEMBL1138438, “Structural-activity relationship study of highly-functionalized imidazolines as potent inhibitors of nuclear transcription factor-kappaB mediated IL-6 production” (Bioorg Med Chem, 2009)
The source made the active and inactive calls. No cut-off for these calls is given here.

Legend:
HeLa [1] = experiment: Stimulation of NF-kappaB-mediated gene transcription expressed in human HeLa cells for 30 mins before TNFalpha challenge measured after 8 hrs by steady-glo luciferase reporter gene assay; type: cell-based
HeLa [2] = experiment: Cell cycle arrest in TNF-alpha-stimulated human HeLa cells transfected with NFkappaB-Luc assessed as accumulation at diploid G2 phase at 10 uM after 8 hrs by using propidium iodide staining by FACS analysis; type: functional
HeLa [3] = experiment: Cell cycle arrest in TNF-alpha-stimulated human HeLa cells transfected with NFkappaB-Luc assessed as accumulation at total S phase at 0.1 uM after 8 hrs by using propidium iodide staining by FACS analysis; type: functional
HeLa [4] = experiment: Cell cycle arrest in TNF-alpha-stimulated human HeLa cells transfected with NFkappaB-Luc assessed as accumulation at total S phase at 1 uM after 8 hrs by using propidium iodide staining by FACS analysis; type: functional
HeLa [5] = experiment: Cell cycle arrest in TNF-alpha-stimulated human HeLa cells transfected with NFkappaB-Luc assessed as accumulation at diploid S phase at 0.05 uM after 8 hrs by using propidium iodide staining by FACS analysis; type: functional
HeLa [6] = experiment: Cell cycle arrest in TNF-alpha-stimulated human HeLa cells transfected with NFkappaB-Luc assessed as accumulation at diploid G2 phase at 20 uM after 8 hrs by using propidium iodide staining by FACS analysis; type: functional
HeLa [7] = experiment: Cell cycle arrest in TNF-alpha-stimulated human HeLa cells transfected with NFkappaB-Luc assessed as accumulation at G2/G1 phase at 20 uM after 8 hrs by using propidium iodide staining by FACS analysis; type: functional
[8] = Cytotoxicity against human 184B5 cells after 24 hrs by MTS assay; type: cell-based
HeLa [9] = experiment: Cell cycle arrest in TNF-alpha-stimulated human HeLa cells transfected with NFkappaB-Luc assessed as accumulation at diploid stage at 20 uM after 8 hrs by using propidium iodide staining by FACS analysis; type: functional
[10] = Cytotoxicity against IL-1-beta-stimulated human whole blood lymphocytes assessed as survival cell count in millions at 20 uM after 24 hrs by trypan blue staining-based hemocytometry
HeLa [11] = experiment: Cell cycle arrest in TNF-alpha-stimulated human HeLa cells transfected with NFkappaB-Luc assessed as accumulation at total S phase at 0.5 uM after 8 hrs by using propidium iodide staining by FACS analysis; type: functional
HeLa [12] = experiment: Effect on cell cycle arrest in TNF-alpha-stimulated human HeLa cells transfected with NFkappaB-Luc assessed as cell aggregate level at 20 uM after 8 hrs by using propidium iodide staining by FACS analysis; type: functional
HeLa [13] = experiment: Cell cycle arrest in human HeLa cells transfected with NFkappaB-Luc assessed as accumulation at total S phase at 20 uM after 8 hrs by using propidium iodide staining by FACS analysis; type: functional
HeLa [14] = experiment: Effect on cell cycle arrest in TNF-alpha-stimulated human HeLa cells transfected with NFkappaB-Luc assessed as cell debris level at 5 uM after 8 hrs by using propidium iodide staining by FACS analysis; type: functional
HeLa [15] = experiment: Effect on cell cycle arrest in TNF-alpha-stimulated human HeLa cells transfected with NFkappaB-Luc assessed as total background cell aggregate and debris level at 0.1 uM after 8 hrs by using propidium iodide staining by FACS analysis; type: functional
HeLa [16] = experiment: Effect on cell cycle arrest in TNF-alpha-stimulated human HeLa cells transfected with NFkappaB-Luc assessed as cell aggregate level at 0.1 uM after 8 hrs by using propidium iodide staining by FACS analysis; type: functional
HeLa [17] = experiment: Cell cycle arrest in TNF-alpha-stimulated human HeLa cells transfected with NFkappaB-Luc assessed as accumulation at total S phase at 10 uM after 8 hrs by using propidium iodide staining by FACS analysis; type: functional
HeLa [18] = experiment: Cell cycle arrest in human HeLa cells transfected with NFkappaB-Luc assessed as accumulation at G2/G1 phase at 20 uM after 8 hrs by using propidium iodide staining by FACS analysis; type: functional
HeLa [19] = experiment: Cell cycle arrest in TNF-alpha-stimulated human HeLa cells transfected with NFkappaB-Luc assessed as accumulation at diploid S phase at 0.5 uM after 8 hrs by using propidium iodide staining by FACS analysis; type: functional
HeLa [20] = experiment: Effect on cell cycle arrest in TNF-alpha-stimulated human HeLa cells transfected with NFkappaB-Luc assessed as cell aggregate level at 0.05 uM after 8 hrs by using propidium iodide staining by FACS analysis; type: functional
HeLa [21] = experiment: Cell cycle arrest in TNF-alpha-stimulated human HeLa cells transfected with NFkappaB-Luc assessed as accumulation at diploid G1 phase at 0.1 uM after 8 hrs by using propidium iodide staining by FACS analysis; type: functional
HeLa [22] = experiment: Cell cycle arrest in TNF-alpha-stimulated human HeLa cells transfected with NFkappaB-Luc assessed as accumulation at diploid stage at 0.1 uM after 8 hrs by using propidium iodide staining by FACS analysis; type: functional
HeLa [23] = experiment: Effect on cell cycle arrest in human HeLa cells transfected with NFkappaB-Luc assessed as cell debris level at 20 uM after 8 hrs by using propidium iodide staining by FACS analysis; type: functional
HeLa [24] = experiment: Cell cycle arrest in human HeLa cells transfected with NFkappaB-Luc assessed as accumulation at diploid G1 phase at 20 uM after 8 hrs by using propidium iodide staining by FACS analysis; type: functional
HeLa [25] = experiment: Effect on cell cycle arrest in TNF-alpha-stimulated human HeLa cells transfected with NFkappaB-Luc assessed as cell debris level at 0.05 uM after 8 hrs by using propidium iodide staining by FACS analysis; type: functional
HeLa [26] = experiment: Effect on cell cycle arrest in TNF-alpha-stimulated human HeLa cells transfected with NFkappaB-Luc assessed as cell aggregate level at 5 uM after 8 hrs by using propidium iodide staining by FACS analysis; type: functional
HeLa [27] = experiment: Cell cycle arrest in TNF-alpha-stimulated human HeLa cells transfected with NFkappaB-Luc assessed as accumulation at diploid G1 phase at 0.5 uM after 8 hrs by using propidium iodide staining by FACS analysis; type: functional
[28] = Cytotoxicity against human whole blood lymphocytes assessed as survival cell count in millions at 10 uM after 24 hrs by trypan blue staining-based hemocytometry
HeLa [29] = experiment: Effect on cell cycle arrest in TNF-alpha-stimulated human HeLa cells transfected with NFkappaB-Luc assessed as cell aggregate level at 10 uM after 8 hrs by using propidium iodide staining by FACS analysis; type: functional
HeLa [30] = experiment: Effect on cell cycle arrest in TNF-alpha-stimulated human HeLa cells transfected with NFkappaB-Luc assessed as total background cell aggregate and debris level at 0.05 uM after 8 hrs by using propidium iodide staining by FACS analysis; type: functional
[31] = Cytotoxicity against human whole blood lymphocytes assessed as survival cell count in millions at 20 uM after 24 hrs by trypan blue staining-based hemocytometry
HeLa [32] = experiment: Cell cycle arrest in TNF-alpha-stimulated human HeLa cells transfected with NFkappaB-Luc assessed as accumulation at diploid G2 phase at 0.05 uM after 8 hrs by using propidium iodide staining by FACS analysis; type: functional
HeLa [33] = experiment: Effect on cell cycle arrest in TNF-alpha-stimulated human HeLa cells transfected with NFkappaB-Luc assessed as cell debris level at 1 uM after 8 hrs by using propidium iodide staining by FACS analysis; type: functional

CCOC(=O)[C@]1(c2ccccc2)N=C(c2ccccc2)N(Cc2ccccc2)[C@@H]1c1ccccc1 (racemic)
Activity (HeLa [1]): inactive
Activity (HeLa [2]): 15.01%
Activity (HeLa [3]): 21.47%
Activity (HeLa [4]): 22.9%
Activity (HeLa [5]): 22.8%
Activity (HeLa [6]): 14.75%
Activity (HeLa [7]): 1.9%
CC50 at 24 h [8]: > 10 µM
Activity (HeLa [9]): 100%
Activity [10]: 0.98 mL⁻¹
Activity (HeLa [11]): 22.52%
Activity (HeLa [12]): 0%
Activity (HeLa [13]): 21.48%
Activity (HeLa [14]): 2.7%
Activity (HeLa [15]): 0.58%
Activity (HeLa [16]): 0%
Activity (HeLa [17]): 16.8%
Activity (HeLa [18]): 1.9%
Activity (HeLa [19]): 22.52%
Activity (HeLa [20]): 0%
Activity (HeLa [21]): 64.5%
Activity (HeLa [22]): 100%
Activity (HeLa [23]): 9.42%
Activity (HeLa [24]): 65.19%
Activity (HeLa [25]): 2.47%
Activity (HeLa [26]): 0%
Activity (HeLa [27]): 64.08%
Activity [28]: 1.04 mL⁻¹
Activity (HeLa [29]): 0%
Activity (HeLa [30]): 1.06%
Activity [31]: 1.02 mL⁻¹
Activity (HeLa [32]): 12.9%
Activity (HeLa [33]): 4.88%
